In US20030104507A1, “Method for detection of ATP” (priority 2001, published 2003):

Test system: LucPpe2m146
Assay: Duration of luminescence (signal stability) and effects of media and sera, DTAB, ± pyrophosphate
Type: biochemical, Photuris pennsylvanica
Protocol: In some embodiments, the compositions of the invention were added to intact cells to lyse them, and then ATP detected. In other embodiments, conditioned culture media were themselves assayed for ATP. However, the various components of media, such as buffers, sugars, amino acids, pH indicators, salts, etc., as well as the various factors found in serum (equine, bovine, etc.) may inhibit luciferase activity.
The luciferase-luciferin reaction was initiated by combining 100 μl of the reagent composition composition with 100 μl cell media with serum, varying final concentrations of DTAB (as indicated below in Table Q) and 1.0 μM ATP was added to each reaction plus or minus 10 μM sodium pyrophosphate in wells of a 96-well microtiter luminometer plate; each experimental condition was prepared in triplicate. At various times after initiating the reaction, rlu values were recorded using an Orion microplate luminometer (Berthold Detection Systems; Pforzheim, Germany).

`CCCCCCCCCCCC[N+](C)(C)C.[Br-]` [DTAB, dodecyltrimethylammonium bromide] was tested, and the “Average Relative Light Units” value (0.50% DTAB, DMEM + 10% FBS + ATP, 0 min) was 204771 relative light units, the “Average Relative Light Units” value (0.50% DTAB, DMEM + 10% FBS + ATP, 10 min) was 223493 relative light units and the “Average Relative Light Units” value (0.50% DTAB, DMEM + 10% FBS + ATP, 30 min) was 187757 relative light units. For the same compound, the “Average Relative Light Units” value (0.50% DTAB, DMEM + 10% FBS + ATP, 65 min) was 146766 relative light units, the “Average Relative Light Units” value (0.50% DTAB, DMEM + 10% FBS + ATP, 120 min) was 104150 relative light units and the “Average Relative Light Units” value (0.50% DTAB, DMEM + 10% FBS + ATP, 180 min) was 72609 relative light units. The “Average Relative Light Units” value (0.50% DTAB, DMEM + 10% FBS + ATP, 325 min) was 32307 relative light units, the “Average Relative Light Units” value (0.50% DTAB, F12/DME + 10% FBS + ATP, 0 min) was 13467 relative light units and the “Average Relative Light Units” value (0.50% DTAB, F12/DME + 10% FBS + ATP, 10 min) was 13311 relative light units. For the same compound, the “Average Relative Light Units” value (0.50% DTAB, F12/DME + 10% FBS + ATP, 30 min) was 11348 relative light units, the “Average Relative Light Units” value (0.50% DTAB, F12/DME + 10% FBS + ATP, 65 min) was 9953 relative light units and the “Average Relative Light Units” value (0.50% DTAB, F12/DME + 10% FBS + ATP, 120 min) was 8127 relative light units. For the same compound, the “Average Relative Light Units” value (0.50% DTAB, F12/DME + 10% FBS + ATP, 180 min) was 6538 relative light units, the “Average Relative Light Units” value (0.50% DTAB, F12/DME + 10% FBS + ATP, 325 min) was 3793 relative light units and the “Average Relative Light Units” value (0.50% DTAB, F12/DME + 10% HS + ATP, 0 min) was 88405 relative light units. For the same compound, the “Average Relative Light Units” value (0.50% DTAB, F12/DME + 10% HS + ATP, 10 min) was 82645 relative light units, the “Average Relative Light Units” value (0.50% DTAB, F12/DME + 10% HS + ATP, 30 min) was 70746 relative light units and the “Average Relative Light Units” value (0.50% DTAB, F12/DME + 10% HS + ATP, 65 min) was 58749 relative light units. The “Average Relative Light Units” value (0.50% DTAB, F12/DME + 10% HS + ATP, 120 min) was 44677 relative light units, the “Average Relative Light Units” value (0.50% DTAB, F12/DME + 10% HS + ATP, 180 min) was 33353 relative light units and the “Average Relative Light Units” value (0.50% DTAB, F12/DME + 10% HS + ATP, 325 min) was 17414 relative light units. The “Average Relative Light Units” value (0.50% DTAB, RPMI + 10% FBS + ATP, 0 min) was 44179 relative light units, the “Average Relative Light Units” value (0.50% DTAB, RPMI + 10% FBS + ATP, 10 min) was 43664 relative light units and the “Average Relative Light Units” value (0.50% DTAB, RPMI + 10% FBS + ATP, 30 min) was 35909 relative light units. For the same compound, the “Average Relative Light Units” value (0.50% DTAB, RPMI + 10% FBS + ATP, 65 min) was 26501 relative light units, the “Average Relative Light Units” value (0.50% DTAB, RPMI + 10% FBS + ATP, 120 min) was 16951 relative light units and the “Average Relative Light Units” value (0.50% DTAB, RPMI + 10% FBS + ATP, 180 min) was 10153 relative light units. For the same compound, the “Average Relative Light Units” value (0.50% DTAB, RPMI + 10% FBS + ATP, 325 min) was 3268 relative light units, the “Average Relative Light Units” value (0.55% DTAB, DMEM + 10% FBS + ATP, 0 min) was 52107 relative light units and the “Average Relative Light Units” value (0.55% DTAB, DMEM + 10% FBS + ATP, 10 min) was 59799 relative light units. For the same compound, the “Average Relative Light Units” value (0.55% DTAB, DMEM + 10% FBS + ATP, 30 min) was 51285 relative light units, the “Average Relative Light Units” value (0.55% DTAB, DMEM + 10% FBS + ATP, 65 min) was 42155 relative light units and the “Average Relative Light Units” value (0.55% DTAB, DMEM + 10% FBS + ATP, 120 min) was 32891 relative light units. For the same compound, the “Average Relative Light Units” value (0.55% DTAB, DMEM + 10% FBS + ATP, 180 min) was 24137 relative light units, the “Average Relative Light Units” value (0.55% DTAB, DMEM + 10% FBS + ATP, 325 min) was 12031 relative light units and the “Average Relative Light Units” value (0.55% DTAB, F12/DME + 10% FBS + ATP, 0 min) was 6847 relative light units. For the same compound, the “Average Relative Light Units” value (0.55% DTAB, F12/DME + 10% FBS + ATP, 10 min) was 6952 relative light units, the “Average Relative Light Units” value (0.55% DTAB, F12/DME + 10% FBS + ATP, 30 min) was 6013 relative light units and the “Average Relative Light Units” value (0.55% DTAB, F12/DME + 10% FBS + ATP, 65 min) was 5581 relative light units. The “Average Relative Light Units” value (0.55% DTAB, F12/DME + 10% FBS + ATP, 120 min) was 4891 relative light units, the “Average Relative Light Units” value (0.55% DTAB, F12/DME + 10% FBS + ATP, 180 min) was 4329 relative light units and the “Average Relative Light Units” value (0.55% DTAB, F12/DME + 10% FBS + ATP, 325 min) was 3207 relative light units. The “Average Relative Light Units” value (0.55% DTAB, F12/DME + 10% HS + ATP, 0 min) was 36615 relative light units, the “Average Relative Light Units” value (0.55% DTAB, F12/DME + 10% HS + ATP, 10 min) was 36669 relative light units and the “Average Relative Light Units” value (0.55% DTAB, F12/DME + 10% HS + ATP, 30 min) was 31348 relative light units. For the same compound, the “Average Relative Light Units” value (0.55% DTAB, F12/DME + 10% HS + ATP, 65 min) was 27979 relative light units, the “Average Relative Light Units” value (0.55% DTAB, F12/DME + 10% HS + ATP, 120 min) was 23778 relative light units and the “Average Relative Light Units” value (0.55% DTAB, F12/DME + 10% HS + ATP, 180 min) was 19955 relative light units. The “Average Relative Light Units” value (0.55% DTAB, F12/DME + 10% HS + ATP, 325 min) was 13539 relative light units, the “Average Relative Light Units” value (0.55% DTAB, RPMI + 10% FBS + ATP, 0 min) was 21388 relative light units and the “Average Relative Light Units” value (0.55% DTAB, RPMI + 10% FBS + ATP, 10 min) was 22863 relative light units. For the same compound, the “Average Relative Light Units” value (0.55% DTAB, RPMI + 10% FBS + ATP, 30 min) was 19631 relative light units, the “Average Relative Light Units” value (0.55% DTAB, RPMI + 10% FBS + ATP, 65 min) was 16848 relative light units and the “Average Relative Light Units” value (0.55% DTAB, RPMI + 10% FBS + ATP, 120 min) was 12968 relative light units. The “Average Relative Light Units” value (0.55% DTAB, RPMI + 10% FBS + ATP, 180 min) was 9661 relative light units and the “Average Relative Light Units” value (0.55% DTAB, RPMI + 10% FBS + ATP, 325 min) was 5080 relative light units.
